Columns and labels:
[1] = biological target: hM3Dq (Homo sapiens, UniProt P20309, A239G/Y149C); test: Slice whole-cell recordings of hM3Dq-transduced MSNs; assay type: cell-based, mice; set-up: 2A-EYFP (C); host or cells: AAV8R12-transduced EYFP+ striatal MSNs in acute mouse brain slices; details: AAV8R12-G88P3-HA-hM3Dq-2A-EYFP; CNO 10 μM; basal firing rate and resting membrane potential unaffected
Text: (§1) Mice from different groups were anesthetized with […] isoflurane, and then decapitated. The brain was quickly extracted and placed in ice-cold N-methyl-D-glucamine (NMDG) cutting solution containing (in mM): 92 NMDG, 2.5 KCl, 25 NaHCO3, 1.25 NaH2PO4, 4.5 D-Glucose, 20 HEPES, 5 L-ascorbic acid, 3 Na-pyruvate, 2 Thiourea, 10 MgSO4, 0.5 CaCl2). The pH was adjusted to 7.2±0.1 using HCl and the osmolarity was adjusted to 305±5 mosmol/L using NMDG. The solution was bubbled with 95% O2/5% CO2 prior to use. Coronal striatum slices were cut in 250-[…]m thickness with a vibratome slicer (Leica, VT1200 S), and then incubated in artificial cerebrospinal fluid (aCSF) saturated with 95% O2/5% CO2 for at least 45 min at 37° C. before recording. The aCSF contains (in mM) 125 NaCl, 1.25 KCl, 25 NaHCO3, 1.25 KH2PO4, 25 D-Glucose, 2 CaCl2) and 1 MgCl2, supplemented with 2 mM Na-pyruvate, 3 mM Myo-inositol and 0.4 mM L-ascorbic acid.
(§2) The acute striatum slice was transferred to the recording chamber with a constant perfusion of oxygenized aCSF at the rate of 3 ml/min. Neurons were visualized using an upright microscope (Olympus, BX-51) with a 40×water immersion objective at room temperature (˜25° C.). […] Neurons were quickly visualized under fluorescence microscope and then patch clamp were achieved under infrared light illumination and CCD camera. […]

[2] = biological target: T1, rM3Ds (Rattus norvegicus, UniProt P08483, A177S/A238G/A489L/DEL261-437/DEL441-478/E258S/I253V/I483M/INS256[…]/K178L/K182A/K255R/K484R/K486H/L173F/L482A/M480V/R171S/R176Q/R179M/S481M/T174R/T181R/T257A/Y148C); test: Slice whole-cell recordings of rM3Ds-transduced MSNs; assay type: cell-based, mice; details: AAV8R12-G88P7-rM3Ds-2A-EYFP
T1 construct: rM3Ds; 2A-EYFP (C); host or cells: AAV8R12-transduced striatal D1-MSNs of mice and cynomolgus macaques (in vivo and acute slices)
T1 sequence (P08483 other isoform, or with tags, fused parts or gaps with the stated changes): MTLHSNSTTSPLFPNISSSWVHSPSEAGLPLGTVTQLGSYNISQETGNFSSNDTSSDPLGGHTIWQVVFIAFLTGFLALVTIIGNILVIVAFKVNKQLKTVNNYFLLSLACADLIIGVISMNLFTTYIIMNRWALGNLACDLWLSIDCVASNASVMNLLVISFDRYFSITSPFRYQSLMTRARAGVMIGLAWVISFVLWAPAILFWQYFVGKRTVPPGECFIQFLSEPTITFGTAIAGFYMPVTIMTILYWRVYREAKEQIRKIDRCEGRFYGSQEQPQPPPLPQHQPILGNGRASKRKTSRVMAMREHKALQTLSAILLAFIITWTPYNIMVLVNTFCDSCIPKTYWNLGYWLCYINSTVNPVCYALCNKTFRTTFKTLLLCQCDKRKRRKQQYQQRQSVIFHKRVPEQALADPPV
Text: as §1, §2

hM3Dq, sequence (P20309 whole entry Y149C/A239G): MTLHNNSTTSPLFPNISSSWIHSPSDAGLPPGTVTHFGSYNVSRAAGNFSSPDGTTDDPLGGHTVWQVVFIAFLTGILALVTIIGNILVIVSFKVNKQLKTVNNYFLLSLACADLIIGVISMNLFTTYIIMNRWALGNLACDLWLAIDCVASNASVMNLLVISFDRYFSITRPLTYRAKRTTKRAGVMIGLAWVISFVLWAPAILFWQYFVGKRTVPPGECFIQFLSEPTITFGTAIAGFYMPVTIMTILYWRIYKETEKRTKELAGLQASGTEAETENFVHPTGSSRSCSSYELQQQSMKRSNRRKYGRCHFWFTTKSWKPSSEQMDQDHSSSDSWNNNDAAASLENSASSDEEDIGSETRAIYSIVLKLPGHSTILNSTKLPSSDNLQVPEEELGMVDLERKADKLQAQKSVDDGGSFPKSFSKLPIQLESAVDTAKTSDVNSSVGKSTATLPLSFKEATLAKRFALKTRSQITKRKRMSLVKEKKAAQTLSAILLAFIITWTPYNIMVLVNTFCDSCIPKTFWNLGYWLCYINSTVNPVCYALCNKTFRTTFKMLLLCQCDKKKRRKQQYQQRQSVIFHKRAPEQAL

## C[N+]1([O-])CCN(C2=Nc3cc(Cl)ccc3Nc3ccccc32)CC1 [CNO, clozapine N-oxide]
[1]
  excitability of transduced MSNs: augmentation of excitability
[2]; 6-OHDA mice, not with AAV8R12-G88P7-EYFP
  excitability of D1-MSNs in parkinsonian mice: increased excitability
[2]; CNO 10 μM, no effect on basal firing rate or resting membrane potential
  excitability of labeled striatal MSNs: enhancement in the excitability
